These results are taken from patent US20190336608A1, “CATIONIC CARRIERS FOR NUCLEIC ACID DELIVERY” (priority 2016, published 2019).

One experiment relates to HepG2 cells. Nature of the experiment: Transfection efficiency of HepG2 cells in vitro (GpLuc mRNA, luminescence of supernatant). It is filed as cell-based, human. The settings on record: for effect on transfection efficiency (in words): added to polymer PB83, 24 h post transfection, compared to polymer alone. The protocol:
This example describes the evaluation of the effect of different polymer-lipid(oid) formulations (as described under Example ▪1) on transfection efficiency on HepG2 cells (human liver carcinoma cell line). As a read-out for transfection efficiency, GpLuc mRNA (SEQ ID NO: 14) was used as a cargo. Successful transfection with the cargo leads to the translation of the luciferase protein and to a secretion of Gp luciferase protein into the cell culture supernatant.
A volume of 0.2 mL HepG2 cells (10.000 cells) were seeded in a 96 well tissue culture plate. After removing the medium from each well, 100 μL RPMI 1640 medium (with 1% Penicillin and 1% Streptomycin, 1% L-Glutamin) was added to each well. Afterwards, HepG2 cells were transfected with 100 μL transfection mix (in triplicates) of the above described polymer-lipid(oid) mRNA complexes and respective controls (in triplicates), and cells were incubated at 37° C. and 5% CO2 for 90 minutes. After incubation, 150 μL medium was exchanged with 150 μL fresh RPMI 1640 medium supplemented with 10% fetal calf serum. Twenty-four hours post transfection, 10 μL of supernatant of each well was extracted and used for further luminescence analysis (see below).
A volume of 10 μL supernatant was transferred to a 96 well plate for GpLuc measurement. Then, coelenterazine working solution (100 μM) was prepared (1 mL coelenterazine stock solution (4.72 mM in EtOH) in 49 mL phosphate buffered saline supplemented with 5 mM NaCl, pH 7.2). A volume of 100 μL coelenterazine working solution was used as a substrate for GpLuc and measured after 5 seconds in a commercially available microplate reader.

The next experiment relates to Sol8 muscle cells. The experiment can be described thus: Transfection efficiency of differentiated Sol8 muscle cells in vitro (GpLuc mRNA). It is filed as cell-based, mouse. The settings on record: added to polymer PB83, low- and high-charge ratio complexes, 24 h post transfection. The text has this: The purpose of this example is to assess the effect of lipid additives such as permanently cationic lipids or lipidoids on transfection/expression efficiency in Sol8 cells. […] Sol8 is a myogenic cell line isolated by Daubas et al. from primary cultures of soleus muscle taken from the leg of a normal C3H mouse. As a read-out for transfection efficiency, GpLuc mRNA (SEQ ID NO: 14) was used as the cargo. A successful transfection with the cargo leads to the translation of the luciferase protein and to a secretion of Gp luciferase protein into the cell culture supernatant. For further details on the GpLuc mRNA cargo see Example 1.
For a subset on hydrogel, a volume of 0.2 mL Sol8 cells (20.000 cells) were seeded in 96 well glass bottom plates (Softwell Hydrogel coated with collagen (elasticity E=12 kPa)) on day 1. For another subset without hydrogel, a volume of 0.2 mL with 10.000 Sol8 cells per well were seeded in a 96 well glass bottom plates.
After removing the medium from each well, 100 μL DMEM medium (with 2% horse serum) was added to each well. Afterwards, on day 2, Sol8 cells were transfected with 100 μL transfection mix of polymer-lipid(oid) complexes (in triplicates without serum) and respective controls (also in triplicates), and cells were incubated at 37° C. and 5% CO2 for 120 minutes (non-hydrogel subset) or respectively 90 minutes (hydrogel subset). After incubation, 150 μL medium was exchanged with 150 μL fresh DMEM medium supplemented with 10% fetal calf serum.
Twenty-four hours post transfection, i.e. on day 3, 10 μL of supernatant of each well was extracted and used for quantification of protein expression (measurement of GpLuc) via luminescence analysis as described above.

Experiment [1] concerns hemagglutinin (HA) protein of influenza A virus (A/Netherlands/602/2009 (H1N1)). Nature of the experiment: Hemagglutination inhibition assay after intramuscular vaccination with HA-mRNA and 3-C12-OH (second Example 7). It is filed as in vivo. The settings on record: Balb/c mice, 10 μg HA-mRNA R2564 with 3-C12-OH, i.m.; after prime and boost vaccination.
Experiment [2] has the same test system. The experiment can be described thus: ELISA of influenza specific IgG1 and IgG2a antibodies in sera of vaccinated mice. Particulars: Balb/c mice, 10 μg HA-mRNA with 3-C12-OH i.m.; 21 days after prime and 14 days after boost. Type of experiment: in vivo. On the technique in general: ELISA stands for enzyme-linked immunosorbent assay.
For experiment [3] the test system is unchanged. It is filed as in vivo. Particulars: Balb/c mice, 10 μg HA-mRNA with 3-C12-OH i.m.; splenocytes 14 days after boost.

As for `CCCCCCCCCCC(O)CNCCN(CCNCC(O)CCCCCCCCCC)CCNCC(O)CCCCCCCCCC` (centres unmarked) [3-C12-OH], the “effect on transfection efficiency (in words)” value in the experiment with HepG2 cells is given as “profound increase”. Moreover, the “effect on transfection efficiency / expression level (in words)” value in the experiment on Sol8 muscle cells is listed as “profound increase”. The “antibody titers against the HA protein compared to HA-mRNA (R2564) alone” value in experiment [1] is “significantly higher”. In addition, in experiment [2], the “functional antibody titers, IgG1 subtype, compared to mRNA without lipid” value is listed as “significantly higher” and the “functional antibody titers, IgG2a subtype, compared to mRNA without lipid” value is reported as “significantly higher”. Further, the “IFNy production compared to non-lipid-formulated mRNA” value in experiment [3] is recorded as “significant increased”.
In the case of `CCCCCCCCCCCCNCCN(CCNCCCCCCCCCCCC)CCNCCCCCCCCCCCC` [3-C12], in the experiment on HepG2 cells, the “effect on transfection efficiency (in words)” value was “profound increase”. Also, the “effect on transfection efficiency / expression level (in words)” value in the experiment with Sol8 muscle cells is “profound increase”.
Turning to `CCCCCCCC/C=C\CCCCCCCC(=O)OCC(C[N+](C)(C)C)OC(=O)CCCCCCC/C=C\CCCCCCCC` (centres unmarked) [DOTAP, 1,2-dioleoyl-3-trimethylammonium-propane, reference compound], the “increase in transfection efficiency compared to transfections with polymer alone” value with HepG2 cells (combination with polymer PB83, high-charge complexes N/P 2, N/P 4, N/P 6, 24 h post transfection) is given as “up to 3 log units”. The “effect on transfection efficiency / expression level (in words)” value in the experiment with Sol8 muscle cells is “effective”.
Regarding `CCCCCCCCCCC(O)C[N+](C)(C)CCN(CC[N+](C)(C)CC(O)CCCCCCCCCC)CC[N+](C)(C)CC(O)CCCCCCCCCC` (centres unmarked) [3-C12-OH-cat], the “effect on transfection efficiency (in words)” value in the experiment with HepG2 cells is listed as “profound increase”.
